Six compounds from paper PMC7187413 (Journal of medicinal chemistry, 2020) can be followed below.

Entries after “also recorded” stand apart in the source; their conditions may differ.

In experiment [1] the target is MLL-1 in the full WDR5, RBBP5, ASH2L, and DPY30 (WRAD) complex (Homo sapiens, UniProt P61964). Briefly: Biochemical histone methyltransferase assay. Particulars: Supplemental Table 4.
The test system of experiment [2] is WDR5 binding to chromatin. Put plainly: ChIP of WDR5 binding to chromatin at MYC target genes in HEK293 cells. In kind it is cell-based, human. Particulars: cells treated with 12 versus N.C.
In the next experiment the test system is MYC bound to chromatin. Put plainly: ChIP-qPCR of MYC binding to target genes in c-MYC-HA overexpressing HEK293 cells. In kind it is cell-based, human. The conditions noted are these: 20 μM, 10 h.
Another experiment deals with WDR5 (Homo sapiens, UniProt P61964). Briefly: Competition fluorescence polarization-based assay.
In another experiment the target is WDR5-MYC complex (Homo sapiens, UniProt P61964). Briefly: Co-IP target engagement in whole. The conditions noted are these: transformed HEK293 cells, 5 μM compound, 24 h. In kind it is cell-based.

As for `CCOC(=O)c1nc(NS(=O)(=O)c2cc(Br)cc(Cl)c2O)cn1C1CCCC1` [Compound 6, Ethyl 4-((5-bromo-3-chloro-2-hydroxyphenyl)sulfonamido)-1-cyclopentyl-1H-imidazole-2-carboxylate], the “inhibition of histone methyltransferase activity of MLL-1” value (shortened to “inhibition”) in experiment [1] is “inhibited”.
For `CS(=O)(=O)c1nc(NS(=O)(=O)c2cc(Br)cc(Cl)c2O)cn1C1CCCC1` [Compound 12], the “WDR5 binding to chromatin at MYC target loci” value in experiment [2] is given as “comparable levels”. The “inhibition” value in experiment [1] is on record as “inhibited”. In the experiment with MYC bound to chromatin (C7orf40, RNPS1, RPS14, RPL5), the “amount of MYC at loci where MYC recruitment is dependent on WDR5” value is reported as “reduction in the amount of MYC; also recorded: reduce the amount of MYC bound to chromatin”. Moreover, in the experiment with MYC bound to chromatin (ZFPM1 and ZNF771), the “amount of MYC at sites where MYC binding is independent of WDR5” value is “remained nearly unaffected; also recorded: did not affect binding of MYC”.
`O=S(=O)(Nc1cn(C2CCCC2)cn1)c1cc(Br)cc(Cl)c1O` [Compound 2i, 5-Bromo-3-chloro-N-(1-cyclopentyl-1H-imidazol-4-yl)-2-hydroxybenzenesulfonamide]: on WDR5 (FPA Kd relative to 2a), the “fold improvement in the binding affinity compared to 2a” value worked out at 2.5 fold. Also, the “WDR5-MYC complex formation in whole cells relative to DMSO” value at WDR5-MYC complex is recorded as “decreased complex formation”.
Regarding `CNC(=O)c1nc(NS(=O)(=O)c2cc(Br)cc(Cl)c2O)cn1C1CCCC1` [Compound 8, 4-((5-Bromo-3-chloro-2-hydroxyphenyl)sulfonamido)-1-cyclopentyl-N-methyl-1H-imidazole-2-carboxamide], in experiment [1], the “inhibition” value is given as “inhibited”.
Still for that read-out and setting: in the case of `O=S(=O)(Nc1cnn(C2CCCC2)c1)c1cc(Br)cc(Cl)c1O` [Compound 3d, 5-Bromo-3-chloro-N-(1-cyclopentyl-1H-pyrazol-4-yl)-2-hydroxybenzenesulfonamide] it was “inhibited”.
Take “5-Bromo-3-chloro-N-(1-cyclopentyl-2-(4-(pyrrolidin-3-yl)piperidine-1-carbonyl)-1H-imidazol-4-yl)-2-hydroxybenzenesulfonamide [Compound 9]”: the Kd on WDR5 (read-out: FPA Kd, competition with FITC-labeled small molecule, average of at least 3 independent replicates ± standard deviation) turned out to be 5 ± 1 µM.
